Like-named read-outs stand apart in the source and are kept apart here.
Legend:
HL-60(TB) [1] = conditions: five-dose assay
ABL^M351T = ABL^M351T (Homo sapiens, UniProt P00519, M351T); assay: ABL mutant enzymatic assay; format: biochemical; conditions: 10-dose, 3-fold dilution from 20 μM, 10 μM ATP
From the text: (§1) Compound 5 (AKE-72) was further profiled against a number of clinically relevant ABL mutants, including E255K, F317I, H396P, M351T, and Q252H (Table 2). This outcome confirmed the ability of compound 5 to potently suppress the activity of the clinically relevant ABL mutants in single-digit nanomolar IC50 values.

ABL^F317I = ABL^F317I (Homo sapiens, UniProt P00519, F317I); assay: ABL mutant enzymatic assay; format: biochemical; conditions: 10-dose, 3-fold dilution from 20 μM, 10 μM ATP
From the text: as §1

ABL^Q252H = ABL^Q252H (Homo sapiens, UniProt P00519, Q252H); assay: ABL mutant enzymatic assay; format: biochemical; conditions: 10-dose, 3-fold dilution from 20 μM, 10 μM ATP
From the text: as §1

ABL^H396P = ABL^H396P (Homo sapiens, UniProt P00519, H396P); assay: ABL mutant enzymatic assay; format: biochemical; conditions: 10-dose, 3-fold dilution from 20 μM, 10 μM ATP
From the text: as §1

ABL^E255K = ABL^E255K (Homo sapiens, UniProt P00519, E255K); assay: ABL mutant enzymatic assay; format: biochemical; conditions: 10-dose, 3-fold dilution from 20 μM, 10 μM ATP
From the text: as §1

CCRF-CEM = assay: NCI SRB anti-leukemic assay
HL-60(TB) [2] = assay: cells; conditions: Homo sapiens
MOLT-4 = assay: NCI SRB anti-leukemic assay
SR = assay: NCI SRB anti-leukemic assay
RET = RET (Homo sapiens, UniProt P07949); assay: Kinase panel profiling at 50 nM; format: biochemical; conditions: range given for ten kinases together
Method: (§2) Figure 3. Enzyme inhibition percentage (relative to DMSO controls) of compound 5 (0.05 µM) against a panel of 18 kinases.

YES = YES (Homo sapiens, UniProt P07947); assay: Kinase panel profiling at 50 nM; format: biochemical; conditions: range given for ten kinases together
Method: as §2

PDGFRβ = PDGFRβ (Homo sapiens, UniProt P09619); assay: Kinase panel profiling at 50 nM; format: biochemical; conditions: range given for ten kinases together
Method: as §2

LCK = LCK (Homo sapiens, UniProt P06239); assay: Kinase panel profiling at 50 nM; format: biochemical; conditions: range given for ten kinases together
Method: as §2

LYN = LYN (Homo sapiens, UniProt P07948); assay: Kinase panel profiling at 50 nM; format: biochemical; conditions: range given for ten kinases together
Method: as §2

FMS = FMS (Homo sapiens, UniProt P07333); assay: Kinase panel profiling at 50 nM; format: biochemical; conditions: range printed for c-Src and FMS together
Method: as §2

FYN = FYN (Homo sapiens, UniProt P06241); assay: Kinase panel profiling at 50 nM; format: biochemical; conditions: range given for ten kinases together
Method: as §2

FLT3 = FLT3 (Homo sapiens, UniProt P36888); assay: Kinase panel profiling at 50 nM; format: biochemical; conditions: range given for ten kinases together
Method: as §2

[3] = test system: the other investigated kinases (panel of 18 kinases); assay: Kinase panel profiling at 50 nM; format: biochemical
Method: as §2

c-Kit = c-Kit (Homo sapiens, UniProt P10721); assay: Kinase panel profiling at 50 nM; format: biochemical; conditions: range given for ten kinases together
Method: as §2

VEGFR2 = VEGFR2 (Homo sapiens, UniProt P35968); assay: Kinase panel profiling at 50 nM; format: biochemical; conditions: range given for ten kinases together
Method: as §2

c-Src = c-Src (Homo sapiens, UniProt P12931); assay: Kinase panel profiling at 50 nM; format: biochemical; conditions: range printed for c-Src and FMS together
Method: as §2

FGFR1 = FGFR1 (Homo sapiens, UniProt P11362); assay: Kinase panel profiling at 50 nM; format: biochemical; conditions: range given for ten kinases together
Method: as §2

CYP2D6 = molecular target: T1, CYP2D6 (Homo sapiens, UniProt P10635); assay: Cytochrome P450 inhibition assay (Vivid CYP450 kit); format: in vitro ADME
T1 construct: purchased ThermoFisher (Vivid CYP450 screening kit), run at RBC
From the text: (§3) Azole derivatives are well known for their ability to inhibit cytochrome P450 isozymes.
(§4) 1.8. Cytochrome P450 Assay
(§5) The binding site was defined based

CYP1A2 = molecular target: T2, CYP1A2 (Homo sapiens, UniProt P05177); assay: as above; format: in vitro ADME
T2 construct: purchased ThermoFisher (Vivid CYP450 screening kit), run at RBC
From the text: as §3, §4, §5

CYP2C9 = molecular target: T3, CYP2C9 (Homo sapiens, UniProt P11712); assay: as above; format: in vitro ADME; conditions: recombinant CYP2C9 (Vivid CYP450 screening kit), single-dose duplicate, read-out: CYP inhibition % CYP2C9
T3 construct: purchased ThermoFisher (Vivid CYP450 screening kit), run at RBC
From the text: as §3, §4, §5

CYP3A4 = molecular target: T4, CYP3A4 (Homo sapiens, UniProt P08684); assay: as above; format: in vitro ADME; conditions: single-dose duplicate, read-out: CYP inhibition % CYP3A4
T4 construct: purchased ThermoFisher (Vivid CYP450 screening kit), run at RBC
From the text: as §3, §4, §5

U937 (Bcr-Abl negative) = assay: Cellular proliferation assay; format: cell-based; conditions: Homo sapiens, U-937, read-out: GI50 U937 (Bcr-Abl negative)
From the text: (§6) We also tested AKE-72 against BCR-ABL-positive and BCR-ABL-negative cell lines.
as §4, §5

K562 (Bcr-Abl positive) = assay: Cellular proliferation assay; format: cell-based; conditions: Homo sapiens, K562, read-out: GI50 K562 (Bcr-Abl positive)
From the text: as §6, §4, §5

Ba/F3 mouse pro-B cells = assay: Cellular proliferation assay; format: cell-based; conditions: BaF3, read-out: GI50 Ba/F3 (mouse pro-B cell)
From the text: as §6, §4, §5

K-562 = assay: NCI SRB anti-leukemic assay
BCR-ABL^WT = BCR-ABL^WT (Homo sapiens, UniProt P00519); assay: BCR-ABL WT kinase inhibition assay; format: biochemical
RPMI-8226 = assay: NCI SRB anti-leukemic assay

T1 sequence (P10635 whole entry): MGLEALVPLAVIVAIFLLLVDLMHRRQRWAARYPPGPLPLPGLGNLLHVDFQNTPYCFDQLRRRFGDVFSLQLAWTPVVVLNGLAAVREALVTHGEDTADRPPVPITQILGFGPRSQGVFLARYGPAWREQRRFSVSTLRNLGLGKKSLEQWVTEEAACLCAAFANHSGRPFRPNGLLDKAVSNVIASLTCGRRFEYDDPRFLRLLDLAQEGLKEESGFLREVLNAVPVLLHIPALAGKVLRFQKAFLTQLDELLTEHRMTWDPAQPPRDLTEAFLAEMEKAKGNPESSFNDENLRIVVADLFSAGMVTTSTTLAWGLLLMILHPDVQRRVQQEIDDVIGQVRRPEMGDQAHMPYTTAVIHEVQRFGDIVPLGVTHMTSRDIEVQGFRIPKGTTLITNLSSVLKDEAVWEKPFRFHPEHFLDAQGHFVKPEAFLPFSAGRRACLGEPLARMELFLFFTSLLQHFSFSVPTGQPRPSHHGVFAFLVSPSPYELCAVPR
T4 sequence (P08684 whole entry): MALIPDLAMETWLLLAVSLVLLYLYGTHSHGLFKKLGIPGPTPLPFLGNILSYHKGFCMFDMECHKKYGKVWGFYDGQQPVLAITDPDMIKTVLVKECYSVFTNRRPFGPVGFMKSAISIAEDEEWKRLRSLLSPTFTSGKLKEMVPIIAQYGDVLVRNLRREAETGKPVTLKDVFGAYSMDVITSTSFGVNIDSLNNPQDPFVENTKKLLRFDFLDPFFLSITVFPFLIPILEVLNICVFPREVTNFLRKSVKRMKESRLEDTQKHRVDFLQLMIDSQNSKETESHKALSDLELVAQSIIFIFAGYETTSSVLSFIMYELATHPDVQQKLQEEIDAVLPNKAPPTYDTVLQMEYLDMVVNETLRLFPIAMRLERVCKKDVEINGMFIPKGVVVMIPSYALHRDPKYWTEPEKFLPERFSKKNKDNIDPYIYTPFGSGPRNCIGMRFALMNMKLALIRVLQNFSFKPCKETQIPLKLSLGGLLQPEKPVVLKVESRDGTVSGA
T2 sequence (P05177 whole entry): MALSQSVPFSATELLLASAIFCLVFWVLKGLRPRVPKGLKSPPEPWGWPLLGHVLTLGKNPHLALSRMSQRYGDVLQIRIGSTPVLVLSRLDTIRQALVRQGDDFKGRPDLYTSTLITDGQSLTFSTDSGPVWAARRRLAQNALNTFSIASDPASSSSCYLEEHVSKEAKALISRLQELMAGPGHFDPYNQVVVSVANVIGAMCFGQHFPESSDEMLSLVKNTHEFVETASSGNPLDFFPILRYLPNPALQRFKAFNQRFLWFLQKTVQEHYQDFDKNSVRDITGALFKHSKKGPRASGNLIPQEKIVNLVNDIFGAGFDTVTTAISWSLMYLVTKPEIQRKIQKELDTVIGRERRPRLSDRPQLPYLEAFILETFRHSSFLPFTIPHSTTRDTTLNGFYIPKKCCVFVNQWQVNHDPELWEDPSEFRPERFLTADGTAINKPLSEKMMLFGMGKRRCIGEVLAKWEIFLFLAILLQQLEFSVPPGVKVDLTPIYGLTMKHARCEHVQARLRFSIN
Chain of PDGFRβ (P09619 33-1106): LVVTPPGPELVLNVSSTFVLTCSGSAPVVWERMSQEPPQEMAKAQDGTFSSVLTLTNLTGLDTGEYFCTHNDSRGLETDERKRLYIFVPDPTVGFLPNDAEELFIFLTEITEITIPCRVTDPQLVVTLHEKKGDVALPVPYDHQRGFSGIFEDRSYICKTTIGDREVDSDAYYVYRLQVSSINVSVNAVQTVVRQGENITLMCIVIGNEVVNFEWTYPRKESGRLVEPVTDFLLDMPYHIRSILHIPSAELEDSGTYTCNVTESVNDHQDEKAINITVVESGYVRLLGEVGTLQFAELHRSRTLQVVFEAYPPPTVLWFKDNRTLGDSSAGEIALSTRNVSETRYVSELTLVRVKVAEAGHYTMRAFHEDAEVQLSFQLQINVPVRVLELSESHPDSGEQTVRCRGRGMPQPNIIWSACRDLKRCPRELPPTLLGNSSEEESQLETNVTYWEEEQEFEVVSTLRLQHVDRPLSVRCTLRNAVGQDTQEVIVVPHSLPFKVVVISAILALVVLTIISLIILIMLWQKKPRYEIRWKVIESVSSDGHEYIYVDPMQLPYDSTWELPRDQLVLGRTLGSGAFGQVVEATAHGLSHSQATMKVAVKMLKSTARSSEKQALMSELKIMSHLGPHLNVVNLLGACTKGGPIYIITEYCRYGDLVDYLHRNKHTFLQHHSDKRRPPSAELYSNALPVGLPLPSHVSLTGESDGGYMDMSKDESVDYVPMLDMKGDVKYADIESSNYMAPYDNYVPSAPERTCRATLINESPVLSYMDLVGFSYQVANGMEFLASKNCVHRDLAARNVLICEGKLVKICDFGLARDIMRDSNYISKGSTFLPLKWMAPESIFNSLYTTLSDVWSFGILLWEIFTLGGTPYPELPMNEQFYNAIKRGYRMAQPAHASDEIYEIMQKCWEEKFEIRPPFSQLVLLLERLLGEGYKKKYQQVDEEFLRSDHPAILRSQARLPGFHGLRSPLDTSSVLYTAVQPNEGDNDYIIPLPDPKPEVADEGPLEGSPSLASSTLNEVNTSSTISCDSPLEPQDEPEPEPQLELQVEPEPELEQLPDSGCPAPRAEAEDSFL
Chain of YES (P07947 whole entry): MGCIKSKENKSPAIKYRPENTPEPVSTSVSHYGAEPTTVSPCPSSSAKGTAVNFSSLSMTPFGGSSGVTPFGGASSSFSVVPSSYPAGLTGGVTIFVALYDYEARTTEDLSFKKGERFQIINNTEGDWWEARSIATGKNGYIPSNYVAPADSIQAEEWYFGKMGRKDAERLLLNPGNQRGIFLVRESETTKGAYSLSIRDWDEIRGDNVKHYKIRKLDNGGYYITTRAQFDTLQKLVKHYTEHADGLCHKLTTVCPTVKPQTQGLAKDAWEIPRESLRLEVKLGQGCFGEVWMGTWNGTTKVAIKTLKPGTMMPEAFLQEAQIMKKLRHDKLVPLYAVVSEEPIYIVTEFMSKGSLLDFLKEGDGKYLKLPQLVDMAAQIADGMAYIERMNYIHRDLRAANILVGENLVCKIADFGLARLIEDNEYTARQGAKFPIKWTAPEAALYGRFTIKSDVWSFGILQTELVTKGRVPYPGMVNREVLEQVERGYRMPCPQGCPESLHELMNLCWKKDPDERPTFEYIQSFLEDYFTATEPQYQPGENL
Chain of FGFR1 (P11362 22-822): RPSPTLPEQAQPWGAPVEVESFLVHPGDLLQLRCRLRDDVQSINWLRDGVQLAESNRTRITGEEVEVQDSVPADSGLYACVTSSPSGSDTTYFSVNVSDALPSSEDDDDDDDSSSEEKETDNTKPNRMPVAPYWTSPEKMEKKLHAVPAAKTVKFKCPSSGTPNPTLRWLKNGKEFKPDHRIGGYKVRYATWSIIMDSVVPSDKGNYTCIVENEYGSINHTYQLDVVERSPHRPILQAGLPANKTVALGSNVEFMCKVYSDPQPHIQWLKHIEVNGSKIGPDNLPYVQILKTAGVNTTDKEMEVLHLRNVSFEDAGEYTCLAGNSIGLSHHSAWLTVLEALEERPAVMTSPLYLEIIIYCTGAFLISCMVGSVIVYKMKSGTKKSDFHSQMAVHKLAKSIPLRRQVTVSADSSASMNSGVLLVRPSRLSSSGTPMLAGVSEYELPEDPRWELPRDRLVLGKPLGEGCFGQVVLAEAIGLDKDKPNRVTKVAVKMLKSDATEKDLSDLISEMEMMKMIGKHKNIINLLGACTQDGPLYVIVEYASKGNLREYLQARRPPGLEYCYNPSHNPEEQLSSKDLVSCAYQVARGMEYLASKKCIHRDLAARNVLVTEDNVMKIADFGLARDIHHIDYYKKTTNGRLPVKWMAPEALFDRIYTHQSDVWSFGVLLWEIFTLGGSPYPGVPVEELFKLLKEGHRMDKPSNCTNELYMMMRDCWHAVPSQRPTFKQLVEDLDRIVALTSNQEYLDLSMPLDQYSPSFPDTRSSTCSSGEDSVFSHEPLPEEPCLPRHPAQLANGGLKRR
Chain of c-Src (P12931 whole entry): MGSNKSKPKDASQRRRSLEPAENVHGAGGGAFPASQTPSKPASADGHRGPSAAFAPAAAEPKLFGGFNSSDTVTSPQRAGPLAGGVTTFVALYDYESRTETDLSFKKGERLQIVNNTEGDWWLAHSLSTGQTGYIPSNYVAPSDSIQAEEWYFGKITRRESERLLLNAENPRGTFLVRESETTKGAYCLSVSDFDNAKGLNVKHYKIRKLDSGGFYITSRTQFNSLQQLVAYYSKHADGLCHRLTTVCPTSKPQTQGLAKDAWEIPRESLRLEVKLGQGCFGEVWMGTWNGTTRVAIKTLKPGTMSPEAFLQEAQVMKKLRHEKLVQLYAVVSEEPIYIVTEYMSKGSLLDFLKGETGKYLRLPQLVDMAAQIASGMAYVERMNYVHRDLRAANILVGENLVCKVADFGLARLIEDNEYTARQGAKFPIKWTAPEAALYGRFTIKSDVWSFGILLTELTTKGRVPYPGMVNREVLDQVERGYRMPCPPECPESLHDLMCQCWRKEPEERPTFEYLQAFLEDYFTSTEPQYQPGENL
T3 sequence (P11712 whole entry): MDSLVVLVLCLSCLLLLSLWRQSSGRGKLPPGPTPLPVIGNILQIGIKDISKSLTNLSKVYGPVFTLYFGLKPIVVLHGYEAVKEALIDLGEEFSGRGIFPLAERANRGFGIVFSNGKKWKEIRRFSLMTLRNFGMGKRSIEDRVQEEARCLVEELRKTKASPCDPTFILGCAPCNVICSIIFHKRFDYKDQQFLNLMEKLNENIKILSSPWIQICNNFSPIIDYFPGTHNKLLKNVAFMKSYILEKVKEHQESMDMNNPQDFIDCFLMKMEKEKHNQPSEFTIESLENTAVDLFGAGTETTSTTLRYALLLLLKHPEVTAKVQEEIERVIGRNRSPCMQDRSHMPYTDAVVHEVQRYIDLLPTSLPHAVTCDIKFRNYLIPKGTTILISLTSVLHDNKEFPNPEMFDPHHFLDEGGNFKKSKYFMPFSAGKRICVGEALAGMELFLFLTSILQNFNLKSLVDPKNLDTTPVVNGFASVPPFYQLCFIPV

## CCN1CCN(Cc2ccc(NC(=O)c3cccc(C#Cc4cccc5[nH]nc(N)c45)c3)cc2C(F)(F)F)CC1 [Compound 5, 3-((3-amino-1H-indazol-4-yl)ethynyl)-N-(4-((4-ethylpiperazin-1-yl)methyl)-3-(trifluoromethyl)phenyl)benzamide]
HL-60(TB) [1]
  TGI (total growth inhibition) HL-60(TB): 1040 nM
ABL^M351T
  IC50: 3.44 nM
ABL^F317I
  IC50: 3.12 nM
ABL^Q252H
  IC50: 3.88 nM
ABL^H396P
  IC50: < 1.02 nM
ABL^E255K
  IC50: 8.98 nM
CCRF-CEM; Homo sapiens, CCRF-CEM, read-out: GI50 CCRF-CEM
  GI50: 436 nM
CCRF-CEM; Homo sapiens, CCRF-CEM, read-out: LC50 (half-maximal lethal concentration) CCRF-CEM
  CC50: > 100000 nM
CCRF-CEM; five-dose assay
  TGI (total growth inhibition) CCRF-CEM: 3040 nM
HL-60(TB) [2]; HL-60, read-out: GI50 HL-60(TB)
  GI50: 97.9 nM
HL-60(TB) [2]; HL-60, read-out: LC50 (half-maximal lethal concentration) HL-60(TB)
  CC50: 5170 nM
MOLT-4; Homo sapiens, MOLT-4, read-out: GI50 MOLT-4
  GI50: 227 nM
MOLT-4; Homo sapiens, MOLT-4, read-out: LC50 (half-maximal lethal concentration) MOLT-4
  CC50: 5130 nM
MOLT-4; five-dose assay
  TGI (total growth inhibition) MOLT-4: 1160 nM
SR; Homo sapiens, SR, read-out: GI50 SR
  GI50: 238 nM
SR; Homo sapiens, SR, read-out: LC50 (half-maximal lethal concentration) SR
  CC50: > 100000 nM
SR; five-dose assay
  TGI (total growth inhibition) SR: 732 nM
RET
  inhibition at 0.05 µM: 83.9 to 99.3%
YES
  inhibition at 0.05 µM: 83.9 to 99.3%
PDGFRβ
  inhibition at 0.05 µM: 83.9 to 99.3%
LCK
  inhibition at 0.05 µM: 83.9 to 99.3%
LYN
  inhibition at 0.05 µM: 83.9 to 99.3%
FMS
  inhibition at 0.05 µM: 64.5 to 73%
FYN
  inhibition at 0.05 µM: 83.9 to 99.3%
FLT3
  inhibition at 0.05 µM: 83.9 to 99.3%
[3]
  inhibition of the other investigated kinases: no inhibition
c-Kit
  inhibition at 0.05 µM: 83.9 to 99.3%
VEGFR2
  inhibition at 0.05 µM: 83.9 to 99.3%
c-Src
  inhibition at 0.05 µM: 64.5 to 73%
FGFR1
  inhibition at 0.05 µM: 83.9 to 99.3%
CYP2D6
  IC50: > 10000 nM
CYP2D6; human, recombinant CYP2D6 (Vivid CYP450 screening kit), 10 µM, single-dose duplicate, read-out: CYP inhibition % CYP2D6
  inhibition at 10 µM: 13.92 ± 0.06%
CYP1A2
  IC50: > 10000 nM
CYP1A2; human, recombinant CYP1A2 (Vivid CYP450 screening kit), 10 µM, single-dose duplicate, read-out: CYP inhibition % CYP1A2
  inhibition at 10 µM: 9.88 ± 0.09%
CYP2C9
  inhibition at 10 µM: 50.67 ± 0.075%
CYP3A4; Vivid CYP450 screening kit (CYP3A4 isozyme)
  inhibition at 10 µM: 90.6%
CYP3A4; recombinant CYP3A4 (Vivid CYP450 screening kit)
  inhibition at 10 µM: 96.57 ± 0.065%
U937 (Bcr-Abl negative)
  GI50: 1900 ± 61 nM
K562 (Bcr-Abl positive)
  GI50: 5.9 nM
Ba/F3 mouse pro-B cells
  GI50: 4000 ± 1170 nM
K-562; Homo sapiens, K562, read-out: GI50 K-562
  GI50: < 10 nM
K-562; Homo sapiens, K562, read-out: LC50 (half-maximal lethal concentration) K-562
  CC50: 5250 nM
K-562; five-dose assay
  TGI (total growth inhibition) K-562: 154 nM
  TGI K-562: 154 nM
BCR-ABL^WT; 10-dose duplicate, 3-fold serial dilution, 10 µM ATP
  IC50: < 0.51 nM
BCR-ABL^WT; relative to II
  fold superior potency against BCR-ABL^WT versus lead indazole II: > 300 folds
RPMI-8226; Homo sapiens, RPMI-8226, read-out: GI50 RPMI-8226
  GI50: 488 nM
RPMI-8226; Homo sapiens, RPMI-8226, read-out: LC50 (half-maximal lethal concentration) RPMI-8226
  CC50: > 100000 nM
RPMI-8226; five-dose assay
  TGI (total growth inhibition) RPMI-8226: 2660 nM

From publication PMC10360995, “Discovery of 3-((3-amino-1H-indazol-4-yl)ethynyl)-N-(4-((4-ethylpiperazin-1-yl)methyl)-3-(trifluoromethyl)phenyl)benzamide (AKE-72), a potent Pan-BCR-ABL inhibitor including the T315I gatekeeper resistant mutant” (Journal of Enzyme Inhibition and Medicinal Chemistry, 2023)
